This note sets out measurements from patent publication US12203089B2, “Plants having increased tolerance to herbicides” (BASF SE, priority 2015, dated 2025).

What all share (format): in vivo
The test system of assay [1] is Brassica napus expressing BnaAnng01240D (SEQ ID 20) variant S1041L. Put plainly: 6-well plate injury test, T1 seeds on vermiculite. As to conditions: 7 days after treatment. How it is done:
(§1) Transgenic Brassica napus plants are assayed for improved tolerance to azine herbicides like e. g. 6-cyclopentyl-N4-(2,3,4,5,6-pentafluorophenyl)-1,3,5-triazine-2,4-diamine in 6-well plates. Therefore, 5-6 T1 seeds are sown on vermiculite and watered with half-strength murashige skoog nutrient solution, pH 5.8 (Murashige and Skoog (1962) Physiologia Plantarum 15: 473-497). Compounds are dissolved in dimethylsulfoxid (DMSO) and added to the medium (final DMSO concentration 0.1%). Multi well plates are incubated in a growth chamber at 22° C., 75% relative humidity and 110 μmol Phot*m^−2*s^−1 with 14: 10 h light: dark photoperiod. Growth inhibition is evaluated seven to ten days after seeding in comparison to wild type plants. Plant injury is rated on a scale of 0% to 100%, 0% being no injury and 100% being complete death.

For assay [2], the system named is Arabidopsis thaliana expressing AtCesA1_P1010L_G1013R (SEQ ID 1). Put plainly: 48-well plate growth inhibition, T2 seeds, tolerance factor. As to conditions: based on IC50 values of growth inhibition, seven to ten days after seeding. The procedure: (§2) Transgenic Arabidopsis thaliana plants (T2) are assayed for improved tolerance to azine herbicides like e. g. 6-cyclopentyl-N4-(2,3,4,5,6-pentafluorophenyl)-1,3,5-triazine-2,4-diamine in 48-well plates. Therefore, T2 seeds are surface sterilized by stirring for 5 min in ethanol+water (70+30 by volume), rinsing one time with ethanol+water (70+30 by volume) and two times with sterile, deionized water. The seeds are resuspended in 0.1% agar dissolved in water (w/v) Four to five seeds per well are plated on solid nutrient medium consisting of half-strength murashige skoog nutrient solution, pH 5.8 (Murashige and Skoog (1962) Physiologia Plantarum 15: 473-497). Compounds are dissolved in dimethylsulfoxid (DMSO) and added to the medium prior solidification (final DMSO concentration 0.1%). Multi well plates are incubated in a growth chamber at 22° C., 75% relative humidity and 110 μmol Phot*m^−2*s^−1 with 14:10 h light:dark photoperiod. Growth inhibition is evaluated seven to ten days after seeding in comparison to wild type plants. Tolerance factors are calculated based on IC50 values of growth inhibition of transformed versus non-transformed Arabidopsis plants.

Assay [3] has as its system Brassica napus wildtype. Put plainly: 6-well plate injury test, seeds on vermiculite. As to conditions: 7 days after treatment. How it is done:
as §1

The test system of assay [4] is Arabidopsis thaliana expressing AtCesA1_G1009D_G1013R (SEQ ID 1). In words: 48-well plate growth inhibition, T2 seeds, tolerance factor. As to conditions: based on IC50 values of growth inhibition, seven to ten days after seeding. The procedure: as §2
The subject of assay [5] is Arabidopsis thaliana expressing AtCesA3_wt (SEQ ID 3). The assay is described as above. Particulars: based on IC50 values of growth inhibition, seven to ten days after seeding. The procedure: as §2
For assay [6], the system named is Arabidopsis thaliana expressing AtCesA3_S983F_S1037F (SEQ ID 3). Described as above. Particulars: based on IC50 values of growth inhibition, seven to ten days after seeding. The procedure:
as §2

Assay [7] concerns Arabidopsis thaliana expressing AtCesA3_S983F_S1040L (SEQ ID 3). The assay is described as above. Particulars: based on IC50 values of growth inhibition, seven to ten days after seeding. How it is done: as §2
Assay [8] deals with Arabidopsis thaliana expressing AtCesA1_wt (SEQ ID 1). Described as above. As to conditions: based on IC50 values of growth inhibition, seven to ten days after seeding. The procedure:
as §2

Take `NC(=O)c1nc(-c2ccccc2)n(-c2ccc(Cl)c(COCC(F)(F)C(F)(F)F)c2)n1` [1-[4-chloro-3-(2,2,3,3,3-pentafluoropropoxymethyl)phenyl]-5-phenyl-1,2,4-triazole-3-carboxamide, reference compound]: the average phytotox value in assay [1] (BnaAnng01240D S1041L event 1, 10^-4M) came to 95%; in assay [1] (BnaAnng01240D S1041L event 1, 10^-5M), 85%; in assay [1] (BnaAnng01240D S1041L event 1, 10^-6M), 80%; in assay [1] (BnaAnng01240D S1041L event 1, 10^-7M), 10%; in assay [1] (BnaAnng01240D S1041L event 1, 10^-8M) it was 0%; in assay [1] (BnaAnng01240D S1041L event 2, 10^-4M), 90%. Further, the average phytotox value in assay [1] (BnaAnng01240D S1041L event 2, 10^-5M) turned out to be 90%; in assay [1] (BnaAnng01240D S1041L event 2, 10^-6M) it was 90%; in assay [1] (BnaAnng01240D S1041L event 2, 10^-7M), 0%; in assay [1] (BnaAnng01240D S1041L event 2, 10^-8M), 0%; in assay [3] (10^-4M) it was 96%; in assay [3] (10^-5M) it was 93%. The average phytotox value is reported as 84% in assay [3] (10^-6M), 41% in assay [3] (10^-7M) and 4% in assay [3] (10^-8M). The “Relative tolerance rate as compared to non-transgenic Arabidopsis plants (non-transgenic = 1.0)” value in assay [2] amounted to 400.

`Cc1cccc(-n2nc(C(N)=O)nc2-c2ccccc2)c1` [1-(m-tolyl)-5-phenyl-1,2,4-triazole-3-carboxamide, reference compound]: the “Relative tolerance rate as compared to non-transgenic Arabidopsis plants (non-transgenic = 1.0)” value amounted to 25 in assay [4]; 4 in assay [5]; 80 in assay [6]; 100 in assay [7]; 3 in assay [8].
